Data from patent US7666898B2, “Multivalent indole compounds and use thereof as phospholipase-A2 inhibitors” (Ilypsa, Inc., priority 2005, dated 2010).

What was measured:
[1] = biological target: human pancreatic secreted PLA2 (hps PLA2) (Homo sapiens, UniProt P04054); details: reported literature data; cited from earlier work
[2] = biological target: porcine pancreatic secreted PLA2 (pps PLA2) (Sus scrofa, UniProt P00592); details: reported literature data; cited from earlier work
[3] = biological target: T1, human non-pancreatic PLA2 (hnp PLA2) (Homo sapiens, UniProt P14555); details: reported literature data; cited from earlier work
T1 sequence (P14555 21-144): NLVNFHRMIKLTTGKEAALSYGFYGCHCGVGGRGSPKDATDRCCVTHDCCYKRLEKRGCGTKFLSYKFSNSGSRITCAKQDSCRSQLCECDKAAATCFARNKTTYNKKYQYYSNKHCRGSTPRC

[4] = test system: LDL receptor knockout mice (B6.129S7-Ldlrtm1Her); assay: LDL receptor knockout mouse model (Example 15); type: in vivo; details: low fat control diet D12328, 25 or 90 mg/kg/d, vs low fat diet alone
Source text: Mice lack an enzyme found in humans, cholesterol ester transfer protein (CETP), which is responsible for the transfer of cholesterol from high density lipoproteins (HDL) to the ApoB-containing lipoproteins such as very low density lipoproteins (VLDL) and low density lipoproteins (LDL). Consequently, LDL cholesterol levels in wild-type mice are very low compared to those seen in humans. The low density lipoprotein receptor (LDLR) is involved with clearing LDL and lipoprotein remnants containing apoE. If the LDLR is inactivated, LDL cholesterol levels rise to levels seen in humans. On a normal rodent diet, the LDL cholesterol levels in LDLR deficient mice are elevated compared to wild-type mice. If the LDLR deficient mice are fed a Western-type diet containing elevated levels of fats and cholesterol, then the total cholesterol and LDL cholesterol levels become highly elevated and can exceed 1000 mg/dL and 300 mg/dL, respectively. This model was used to investigate the effects of indole and indole-related Test Articles. Avandia (rosiglitazone) and Zetia (ezetimibe) were used as control test articles.
Male LDL receptor knockout mice (B6.129S7-Ldlrtm1Her) were obtained from Jackson Labs (Bar Harbor, Me.). […] Diet and water was provided ad libitum throughout the course of the study. Animals were acclimated for at least seven days, and then randomized by body weight into fourteen groups of seven animals each. Each group of animals was placed on diets with and without Test Articles as described in Table 13. All diets other than Laboratory Rodent Diet 5001 were provided by Research Diets (New Brunswick, N.J.).
In these studies and the accompanying figures, Diet D12328 from Research Diets is referred to as the “Low Fat” or Control diet, while Diet D12079B from Research Diets is referred to as the “Western” diet. Groups 1-7 were fed diet D12328 that contained either no drug (Group 1) or varying amounts of Test Articles (Groups 2-7). Groups 8-14 were fed diet D12079 that contained either no drug (Group 8) or varying amounts of Test Articles (Groups 9-14). The Test Article content was calculated such that ad libitum consumption by the animals would deliver doses (in mg of Test Article per Kg animal weight per day) approximating those listed in Table 13.
Animals were maintained on the diets for eight weeks. Body weights were recorded weekly. Blood was drawn within 1-2 hrs of lights-on, without fasting. The serum was analyzed for total cholesterol, LDL cholesterol, HDL cholesterol, triglycerides (TG), free fatty acid (FFA) and lysophospholipid (LPC) content.
Statistical analyses were performed using GraphPad Prism 4.03. (GraphPad Software, Inc., San Diego, Calif.). Two sets of statistical analyses were performed. […]

[5] = Toxicology, 5-day daily oral gavage; type: in vivo, mice; details: 5 consecutive days
Source text: The purpose of this study was to evaluate the toxicity of indole and indole-related Test Articles when administered daily via oral gavage to mice for 5 consecutive days.
Assessment of toxicity was based on mortality; clinical signs, body weight, food consumption, clinical pathology, and macroscopic pathology data.

[6] = test system: C57BL/6J mouse model of obesity; assay: Mouse diet-induced obesity model (Example 14); type: in vivo; details: low fat control diet D12328, 25 or 90 mg/kg/d, vs low fat diet alone
Source text: The high-fat diet-fed C57BL/6J mouse model of human diabetes, originally introduced by Surwit and colleagues (Surwit, R S, et al. (1988) “Diet-induced type II diabetes in C57BL/6J mice”, Diabetes 37: 1163-1167) is a widely accepted, clinically relevant, polygenic model that induces obesity, dyslipidemia, glucose- and insulin-resistance as early as 3 weeks after commencing the high fat diet (Winzell, M S and Ahren, B (2004) “The high-fat diet-fed mouse: a model for studying mechanisms and treatment of impaired glucose tolerance and type 2 diabetes”, Diabetes 53 Suppl 3: S215-219). This model was used to investigate the effects of indole and indole-related Test Articles. Avandia (rosiglitazone) was used as a control Test Article.
Female C57Black/6J mice (5-6 weeks old) were obtained from Jackson laboratories (Bar Harbor, Me.). […] Diet and water was provided ad libitum throughout the course of the study. Animals were acclimated for at least seven days, and then randomized by weight into twelve groups of eight animals each. Each group of animals was placed on diets with and without Test Articles as described in Table 12. All diets other than Laboratory Rodent Diet 5001 were provided by Research Diets (New Brunswick, N.J.).
In these studies and the accompanying figures, Diet D12328 from Research Diets is referred to as the “Low Fat” or Control diet/chow, while Diet D12331 from Research Diets is referred to as the “High Fat” diet. Groups 1-6 were fed diet D12328 that contained either no drug (Group 1) or varying amounts of Test Articles (Groups 2-6). Groups 7-12 were fed diet D12331 that contained either no drug (Group 7) or varying amounts of Test Articles (Groups 8-12). The Test Article content was calculated such that ad libitum consumption by the animals would deliver doses (in mg of Test Article per kg animal weight per day) approximating those listed in Table 12.
Animals were maintained on the diets for up to eleven weeks. Body weights were recorded weekly. Blood was drawn within 1-2 hrs of lights-on. without fasting. The serum was analyzed for glucose, total cholesterol, triglycerides (TG) and lysophospholipid (LPC) content.
Statistical analyses were performed using GraphPad Prism 4.03. (GraphPad Software, Inc., San Diego, Calif.). Two sets of statistical analyses were performed. First, the Low Fat Chow, no treatment group was compared by student's two-tailed T-test against the High Fat, High Sucrose diet, no treatment group. […] Second, all treatment groups on the High Fat, High Sucrose diet were compared to the no-treatment group on that diet by 1-way ANOVA, followed by a Dunnett's post-test.

[7] = Mouse pharmacokinetic study (Example 13); details: for bioavailability: male, CD-1, mouse, in vivo, po, 30 mg/kg
Experimental: The plasma exposure of male CD-1 mice to indole and indole-related test articles (TAs) following intravenous (IV, 3 mg/kg) and oral (PO, 30 mg/kg) routes of administration was measured. This model was used to investigate the bioavailability of indole and indole-related TAs in mouse.
Two groups (N=18 and 27) of male CD-1 mice were used for the study.
The components were mixed by vortexing and sonicating in a warming bath for 60 minutes. Animals were fasted overnight prior to start of the study. On study day (1), formulations were sonicated for an hour to make sure that no visible particles were present prior to dosing, or if present were evenly distributed in suspension. Formulated test article were stirred continuously during dosing.
All animals were weighed on study day (1) and the body weights were recorded and used for dose calculation. […] Blood samples (0.5 mL) were collected at specified time intervals into labeled, yellow-capped Microtainer tubes. The tubes were centrifuged (8,000×g, 10 min). Serum was then pipetted off into labeled Eppendorf® tubes and frozen at −80° C. Clinical observations were recorded as needed.
Analysis of serum samples was performed by LC/MS/MS (Waters Quattro Premier, Milford, Mass.). Areas under curves (AUC) were calculated using Graphpad Prism Version 4. Bioavailability was calculated using the following equation: (Bioavailability)=(AUC0-t, oral/AUC0-t, iv)×(Doseiv/Doseoral)×100 where AUC0-t=total area under curve at the last measurable time point

[8] = biological target: T2, human group 1B PLA2 (hps PLA2) (Homo sapiens, UniProt P04054); assay: Fluorimetric PLA2 inhibition assay, human (Example 8); type: biochemical; details: read-out: ILYPSA % inhibition at 15 μM hps PLA2
T2 construct: made in house; host or cells: E. coli
Source text: (§1) In this example, a fluorimetric assay procedure was used to evaluate the indole and indole-related compounds of the invention as inhibitors of group 1B phospholipase A2 (PLA2) from human, mouse and porcine.
(§2) In general, this assay used a phosphatidylmethanol substrate with a pyrene fluorophore on the terminal end of the sn-2 fatty acyl chain. Without being bound by theory, close proximity of the pyrenes from neighboring phospholipids in a phospholipid vesicle caused the spectral properties to change relative to that of monomeric pyrene. Bovine serum albumin was present in the aqueous phase and captured the pyrene fatty acid when it is liberated from the glycerol backbone owing to the PLA2-catalyzed reaction. […] The effect of a given inhibitor and inhibitor concentration on human, mouse and porcine phospholipase was determined.
(§3) Recombinant human and mouse group 1B PLA2 were cloned and expressed in E. coli as insoluble inclusion bodies. The inclusion bodies were isolated and purified by sonicating cell pellet in lysis buffer (50 mM Tris-HCl pH 7.0, 250 mM NaCl, 0.5% Triton 100), centrifugation at 12,000×g, and washing three times in washing buffer (20 mM Tris-HCl pH 7.0, 250 mM NaCl, 0.5% Triton 100). Then the inclusion bodies were dissolved in dissolving buffer (50 mM Tris-HCl pH 7.0, 250 mM NaCl, 6 M Guanidine-HCl, 1 mM DTT) and dialyzed four times against 10 volumes of refolding buffer (20 mM Tris-HCl pH 7.0, 250 mM NaCl, 0.5M Guanidine-HCl, 5% (w/w) Glycerol, 2 mM reduced glutathione and 0.4 mM oxidized glutathione) at 4° C. The correctly refolded proteins were concentrated using Amicon Stirred cell under nitrogen pressure (<70 psi) and dialyzed against 10 volumes of 50 mM Tris-HCl pH 7.0, 250 mM NaCl and 5% (w/w) glycerol. Human and mouse group 1B PLA2 were further purified by High S ion exchange and gel filtration columns.
(§4) The following reagents were prepared: • 1. PPyrPM stock solution (1 mg/ml) in toluene:isopropanol (1:1) • 2. […]
(§5) The following procedure was performed to evaluate the inhibitory potency of the evaluated compounds. • 1. […]

[9] = biological target: T3, mouse group 1B PLA2 (mps PLA2) (Mus musculus, UniProt Q9Z0Y2); assay: Fluorimetric PLA2 inhibition assay, mouse (Example 8); type: biochemical; details: read-out: ILYPSA % inhibition at 15 μM mps PLA2
T3 construct: made in house; host or cells: E. coli
T3 sequence (Q9Z0Y2 23-146): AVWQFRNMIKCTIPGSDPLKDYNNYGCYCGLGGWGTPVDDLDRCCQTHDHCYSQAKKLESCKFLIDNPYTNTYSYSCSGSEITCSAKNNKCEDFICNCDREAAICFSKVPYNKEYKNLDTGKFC
Source text: as §1, §2, §3, §4, §5

Sequence of human pancreatic secreted PLA2 (hps PLA2) (P04054 23-148): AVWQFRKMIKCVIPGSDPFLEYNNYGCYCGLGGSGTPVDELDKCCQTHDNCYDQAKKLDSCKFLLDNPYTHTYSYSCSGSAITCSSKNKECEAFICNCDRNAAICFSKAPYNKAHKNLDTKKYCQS
Sequence of porcine pancreatic secreted PLA2 (pps PLA2) (P00592 23-146): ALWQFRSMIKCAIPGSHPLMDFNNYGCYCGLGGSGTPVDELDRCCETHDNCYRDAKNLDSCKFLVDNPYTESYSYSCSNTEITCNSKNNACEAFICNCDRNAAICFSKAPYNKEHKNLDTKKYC
T2 sequence (P04054 23-148): as the sequence (P04054 23-148) above

Cc1c(CC(N)=O)c2c(OCCCC(=O)O)cccc2n1Cc1ccccc1
IC50 [1]: 3.66 µM

Cc1c(CC(N)=O)c2cc(OCc3ccc(C(=O)O)cc3)ccc2n1Cc1ccccc1
IC50 [2]: 7.5 µM
IC50 [3]: 0.147 ± 0.009 µM
IC50 [1]: 22.5 µM

NC(=O)Cc1c(Br)n(Cc2ccccc2)c2ccc(OCCCC(=O)O)cc12
IC50 [2]: 2.86 µM
IC50 [1]: 15.9 µM

NC(=O)Cc1c(Br)n(Cc2ccccc2)c2ccc(OCCCP(=O)(O)O)cc12
IC50 [2]: 2.2 µM
IC50 [1]: 6.2 µM

CCc1c(CC(N)=O)c2cc(OCCCP(=O)(O)O)ccc2n1Cc1cccc(Cl)c1
IC50 [1]: 46.2 µM

Cc1c(CC(N)=O)c2cc(CCCC(=O)O)ccc2n1Cc1ccccc1
IC50 [1]: 94 µM

CCc1c(CC(N)=O)c2cc(SCCCC(=O)O)ccc2n1Cc1ccccc1
IC50 [1]: 16 µM

Cc1c(CC(=O)NN)c2cc(OCCCC(=O)O)ccc2n1Cc1ccccc1
IC50 (μM) pps PLA2 [2]: no activity
IC50 (μM) hps PLA2 [1]: no activity

CCc1c(C(=O)C(N)=O)c2c(OCC(=O)O)cccc2n1Cc1ccccc1-c1ccccc1
IC50 [3]: 0.004 ± 0.001 µM
IC50 [1]: 0.062 µM

Cc1c(C(=O)C(N)=O)c2c(/C=C/C(=O)O)cccc2n1Cc1ccccc1
IC50 [1]: > 100 µM

Cc1c(C(=O)C(N)=O)c2c(CCC(=O)O)cccc2n1Cc1ccccc1
IC50 [1]: > 100 µM

2,2′,2″-(1,1′,1″-(12,12′,12″-(benzene-1,3,5-triyltris(oxy))tris(dodecane-12,1-diyl))tris(3-(2-amino-2-oxoacetyl)-2-methyl-1H-indole-4,1-diyl))tris(oxy)triacetic acid [ILY-v-32]
effect in animals fed a low fat control diet containing test article [4]: No or little effect
clinical pathology data, treated groups vs vehicle control group [5]: no differences
effect in animals fed a low fat control diet containing test article [6]: No or little effect

Cc1c(C(=O)C(N)=O)c2c(OCC(=O)NS(=O)(=O)CCCC(=O)O)cccc2n1Cc1ccccc1 [ILY-IV-40, 4-[2-(3-Aminooxalyl-1-benzyl-2-methyl-1H-indol-4-yloxy)-acetylsulfamoyl]-butyric acid]
Bioavailability (%) ([7]; PO 30 mg/kg vs IV 3 mg/kg, CD-1 mice, serum LC/MS/MS): 0.50%
effect in animals fed a low fat control diet containing test article [4]: No or little effect
clinical pathology data, treated groups vs vehicle control group [5]: no differences
effect in animals fed a low fat control diet containing test article [6]: No or little effect

Cc1c(C(=O)C(N)=O)c2c(OC(Br)(C(N)=O)C(F)(F)F)cccc2n1Cc1ccccc1 (centres unmarked) [ILY-IV-53, 2-(3-Aminooxalyl-1-benzyl-2-methyl-1H-indol-4-yloxy)-2-bromo-3,3,3-trifluoro-propionamide]
inhibition at 15 µM [8]: 49%
inhibition at 15 µM [9]: 49.7%

Cc1c(C(=O)C(N)=O)c2c(OCC(=O)O)cccc2n1CCCCCCCCCCCCSCCCCCCCCSCCCCCCCCCCCCn1c(C)c(C(=O)C(N)=O)c2c(OCC(=O)O)cccc21 [ILY-v-26, 2,2′-(1,1′-(12,12′-(Octane-1,8-diylbis(sulfanediyl))bis(dodecane-12,1-diyl))bis(3-(2-amino-2-oxoacetyl)-2-methyl-1H-indole-4,1-diyl))bis(oxy)diacetic acid]
effect in animals fed a low fat control diet containing test article [4]: No or little effect
clinical pathology data, treated groups vs vehicle control group [5]: no differences
effect in animals fed a low fat control diet containing test article [6]: No or little effect

Cc1c(C(=O)C(N)=O)c2c(OCC(=O)O)cccc2n1CCCCCCCCCCCCOc1ccccc1OCCCCCCCCCCCCn1c(C)c(C(=O)C(N)=O)c2c(OCC(=O)O)cccc21 [ILY-v-27, [3-Aminooxalyl-1-(12-{2-[12-(3-aminooxalyl-4-carboxymethoxy-2-methyl-indol-1-yl)-dodecyloxy]-phenoxy}-dodecyl)-2-methyl-1H-indol-4-yloxy]-acetic acid]
bioavailability [7]: 1.49%

Cc1c(C(=O)C(N)=O)c2c(OCC(=O)O)cccc2n1CCCCCCCCCCCCOc1ccc(C(C)(C)c2ccc(OCCCCCCCCCCCCn3c(C)c(C(=O)C(N)=O)c4c(OCC(=O)O)cccc43)cc2)cc1 [ILY-v-30, 2,2′-(1,1′-(12,12′-(4,4′-(propane-2,2-diyl)bis(4,1-phenylene))bis(oxy)bis(dodecane-12,1-diyl))bis(3-(2-amino-2-oxoacetyl)-2-methyl-1H-indole-4,1-diyl))bis(oxy)diacetic acid]
effect in animals fed a low fat control diet containing test article [4]: No or little effect
clinical pathology data, treated groups vs vehicle control group [5]: no differences
effect in animals fed a low fat control diet containing test article [6]: No or little effect

Cc1c(C(=O)C(N)=O)c2c(OCC(=O)O)cccc2n1CCCCCCCCCCCCN(CCCCCCCCCCCCn1c(C)c(C(=O)C(N)=O)c2c(OCC(=O)O)cccc21)Cc1ccccc1 [ILY-v-31, 2,2′-(1,1′-(12,12′-(benzylazanediyl)bis(dodecane-12,1-diyl))bis(3-(2-amino-2-oxoacetyl)-2-methyl-1H-indole-4,1-diyl))bis(oxy)diacetic acid]
bioavailability [7]: 5.15%

Cc1c(C(=O)C(N)=O)c2c(OCC(=O)O)cccc2n1CCCCCCCCCCCCOc1ccccc1-c1ccccc1OCCCCCCCCCCCCn1c(C)c(C(=O)C(N)=O)c2c(OCC(=O)O)cccc21 [ILY-v-37, [3-Aminooxalyl-1-(12-{2′-[12-(3-aminooxalyl-4-carboxymethoxy-2-methyl-indol-1-yl)-dodecyloxy]-biphenyl-2-yloxy}-dodecyl)-2-methyl-1H-indol-4-yloxy]-acetic acid]
clinical pathology data, treated groups vs vehicle control group [5]: no differences
